Measurements as given in publication PMC3229538, “Inhibition of G Protein-Activated Inwardly Rectifying K^+ Channels by Different Classes of Antidepressants” (PLoS ONE, 2011).
Where a name gives a salt, the structure may show the parent alone. Read-outs that look alike come from different tables or passages of the source.

Key:
[1] = system: intrinsic oocyte channels; assay: Current responses in uninjected Xenopus oocytes; format: cell-based, Xenopus laevis
Method: Louis, MO, USA). […] Microelectrodes were filled with 3 M KCl. […] For the analysis of concentration-response relationships, the data were fitted to a standard logistic equation [51] using KaleidaGraph (Synergy Software, Reading, PA, USA). […] The data are expressed as mean ± SEM, and n is the number of oocytes tested. The statistical analysis of differences between groups was performed using paired t-test, one-way analysis of variance (ANOVA), or two-way ANOVA followed by the Tukey-Kramer post hoc test. Values of P<0.05 were considered statistically significant.

[2] = molecular target: T1, GIRK1/2 channels activated by GTPγS (Mus musculus, UniProt P48542+P63250); assay: Inhibition of total GIRK currents (GTPγS-induced and basal) in GTPγS-injected oocytes; format: cell-based; details: injection of 13.8 nl of 100 mM into oocyte
T1 construct: expressed in transfected cells; host or cells: Xenopus laevis oocytes injected with in vitro transcribed mRNA
T1 sequence (P63250 1-501): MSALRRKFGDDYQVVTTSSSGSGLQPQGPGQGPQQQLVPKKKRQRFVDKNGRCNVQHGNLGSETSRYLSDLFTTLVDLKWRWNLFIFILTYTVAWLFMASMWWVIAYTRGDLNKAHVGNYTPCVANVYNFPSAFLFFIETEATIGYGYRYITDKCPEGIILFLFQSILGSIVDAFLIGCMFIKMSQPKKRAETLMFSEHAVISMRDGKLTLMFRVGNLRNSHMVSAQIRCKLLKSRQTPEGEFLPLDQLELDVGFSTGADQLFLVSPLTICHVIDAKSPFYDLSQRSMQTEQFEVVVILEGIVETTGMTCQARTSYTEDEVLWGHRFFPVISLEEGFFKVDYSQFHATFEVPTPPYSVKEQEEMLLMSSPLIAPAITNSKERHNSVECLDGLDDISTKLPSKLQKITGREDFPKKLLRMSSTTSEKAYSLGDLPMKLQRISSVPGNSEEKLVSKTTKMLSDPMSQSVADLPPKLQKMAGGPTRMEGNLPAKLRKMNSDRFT
T1 sequence (P48542 1-425): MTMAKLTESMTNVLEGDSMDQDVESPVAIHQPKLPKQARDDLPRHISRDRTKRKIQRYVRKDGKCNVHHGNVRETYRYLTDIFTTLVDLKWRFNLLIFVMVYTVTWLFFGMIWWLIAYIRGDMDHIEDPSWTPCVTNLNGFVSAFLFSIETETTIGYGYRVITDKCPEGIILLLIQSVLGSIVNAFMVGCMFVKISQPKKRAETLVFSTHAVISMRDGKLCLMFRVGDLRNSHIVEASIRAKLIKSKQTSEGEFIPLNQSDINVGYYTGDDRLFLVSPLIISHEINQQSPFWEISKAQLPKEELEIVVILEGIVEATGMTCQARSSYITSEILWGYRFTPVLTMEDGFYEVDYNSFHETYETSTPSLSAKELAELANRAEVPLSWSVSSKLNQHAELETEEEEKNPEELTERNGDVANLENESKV
Source text: Microelectrodes were filled with 3 M KCl. […] GIRK channels are activated by various Gi/o-protein-coupled receptors through the direct action of G-protein βγ subunits released from the heterotrimeric G-protein complex, [33].

[3] = ref Data Sheets of Pfizer and Eli Lilly and Company; cited from earlier work
[4] = cited from earlier work
[5] = pKa of secondary amine group and protonation; format: physicochemical; details: pH 7.4
[6] = molecular target: T2, GIRK1/2 channels (Mus musculus, UniProt P48542+P63250); assay: Inhibition of basal GIRK currents, Xenopus oocyte expression assay, two-electrode voltage clamp; format: cell-based; details: for inhibition at 100 µM: read-out: % inhibition of basal GIRK currents
T2 construct: expressed in transfected cells; host or cells: Xenopus laevis oocytes injected with in vitro transcribed mRNA
T2 sequence (P63250 1-501): T1 sequence (P63250 1-501)
T2 sequence (P48542 1-425): T1 sequence (P48542 1-425)
Method: (§1) Microelectrodes were filled with 3 M KCl. […] The data are expressed as mean ± SEM, and n is the number of oocytes tested. The statistical analysis of differences between groups was performed using paired t-test, one-way analysis of variance (ANOVA), or two-way ANOVA followed by the Tukey-Kramer post hoc test. Values of P<0.05 were considered statistically significant.

[7] = molecular target: T3, GIRK1/4 channels (Mus musculus, UniProt P48545+P63250); assay: as above; format: cell-based; details: for inhibition at 100 µM: read-out: % inhibition of basal GIRK currents
T3 construct: expressed in transfected cells; host or cells: Xenopus laevis oocytes injected with in vitro transcribed mRNA
T3 sequence (P63250 1-501): T1 sequence (P63250 1-501)
T3 sequence (P48545 1-419): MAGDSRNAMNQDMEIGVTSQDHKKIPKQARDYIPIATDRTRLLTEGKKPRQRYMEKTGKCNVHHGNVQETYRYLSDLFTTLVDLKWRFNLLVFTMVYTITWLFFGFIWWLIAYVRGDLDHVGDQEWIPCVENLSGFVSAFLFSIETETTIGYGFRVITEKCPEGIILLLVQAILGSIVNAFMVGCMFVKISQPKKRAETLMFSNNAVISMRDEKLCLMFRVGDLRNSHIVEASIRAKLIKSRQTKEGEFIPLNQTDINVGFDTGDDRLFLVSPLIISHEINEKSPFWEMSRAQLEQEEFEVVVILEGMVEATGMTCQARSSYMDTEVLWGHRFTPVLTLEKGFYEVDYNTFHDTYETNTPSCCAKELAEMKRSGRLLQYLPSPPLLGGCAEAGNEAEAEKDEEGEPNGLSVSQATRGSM
Method: as §1

[8] = cited from earlier work; remark: listed apart in the source
[9] = molecular target: GIRK1/2 channels activated by ethanol (Mus musculus, UniProt P48542+P63250); details: 100 mM
Source text: These plasmids were linearized by digestion with the appropriate enzymes as described previously [45], [46]. The specific mRNAs were synthesized in vitro using the mMESSAGE mMACHINE™ In Vitro Transcription Kit (Ambion, Austin, TX, USA).

[10] = system: GIRK channels; details: cited from earlier work
[11] = system: T4, Kir2.1 channels; assay: Effect on Kir2.1 currents, Xenopus oocyte expression assay; format: cell-based, mouse; details: 300 µM, hK solution
T4 construct: expressed in transfected cells; host or cells: Xenopus laevis oocytes injected with in vitro transcribed mRNA
Method: Microelectrodes were filled with 3 M KCl. […]. The data are expressed as mean ± SEM, and n is the number of oocytes tested. The statistical analysis of differences between groups was performed using paired t-test, one-way analysis of variance (ANOVA), or two-way ANOVA followed by the Tukey-Kramer post hoc test. Values of P<0.05 were considered statistically significant.

[12] = 100 µM, K4 solution 4 mM K+, −10 mV
[13] = basal GIRK currents, −70 mV, hK solution 96 mM K+
[14] = concentration reducing basal GIRK currents by 25%
[15] = concentration reducing basal GIRK currents by 50%
[16] = read-out: % max (percentage inhibition of basal GIRK currents at the highest concentration tested)

[Ba+2] [Ba^2+]
current response ([1]; 3 mM, K4 solution 4 mM K+, −10 mV): 7.6±1.3 nA | current response in GTPγS-injected uninjected oocytes ([1]; 3 mM, after GTPγS injection): 3.9±2.1 nA | current response ([1]; 3 mM, hK solution, −70 mV): 3.1±1.7 nA

Nc1nc2c(ncn2[C@@H]2O[C@H](COP(=O)([O-])OP(=O)([O-])OP([O-])([O-])=S)[C@@H](O)[C@H]2O)c(=O)[nH]1.[Li+].[Li+].[Li+].[Li+] [GTPγS, Li4-guanosine-5′-O-(3-thiotriphosphate)]
increase of inward currents, steady-state level [2]: 516.0±123.7 nA

CNCC[C@H](Oc1cccc2ccccc12)c1cccs1 [duloxetine, duloxetine hydrochloride]
pKa of secondary amine group [3]: 9.34 | concentrations in cases of overdose [4]: ≤ 8.4 µM | protonated form [5]: ~98.9% | current response [1, 12]: 0±0 nA | effect on outward GIRK currents ([6]; 30 µM, K4 solution 4 mM K+, holding potential −10 mV): reversibly reduced | voltage dependence of GIRK current inhibition at the end of the voltage pulses ([6]; 30 µM, −120 to −40 mV): voltage-dependent | n H (Hill coefficient) ([6]; basal GIRK currents): 0.94±0.06 | EC50 [6, 13]: 14.9 ± 0.4 µM | IC25 [6, 14]: 6.6 ± 0.6 µM | IC50 [6, 15]: 28.3 ± 2.5 µM | effect of extracellular pH on percentage inhibition of GIRK channels ([6]; extracellular pH 7.4 and 9.0): not significantly affected | inhibition at 100 µM [6]: 65.6 ± 1% | inhibition at 300 µM [6, 16]: 72.2 ± 1.1% | n H (Hill coefficient) ([7]; basal GIRK currents): 0.97±0.07 | EC50 [7, 13]: 17 ± 1.3 µM | IC25 [7, 14]: 12.6 ± 1.2 µM | IC50 [7, 15]: 124 ± 34.3 µM | inhibition at 100 µM [7]: 49.7 ± 2.2% | inhibition at 300 µM [7, 16]: 54.1 ± 1.5% | brain levels compared with blood levels [8]: 15 fold

CCO [ethanol, Ethanol]
induced GIRK currents [9]: 344.2±40.3 nA

CN1CCN2c3ccccc3Cc3ccccc3C2C1 (stereo not drawn) [mianserin, mianserin hydrochloride]
concentrations in cases of overdose [4]: ≤ 18.9 µM | inhibition at 100 µM ([6]; 100 µM, −70 mV, hK solution): 24.1 ± 5.5% | inhibition at 100 µM ([7]; 100 µM, −70 mV, hK solution): 18.8 ± 1.3% | brain levels compared with blood levels [8]: 12.1 fold

CCN(CC)C(=O)C1(c2ccccc2)CC1CN (stereo not drawn) [milnacipran]
effects on GIRK channels [10]: little effects

CN1CCN2c3ncccc3Cc3ccccc3C2C1 (stereo not drawn) [mirtazapine, Mirtazapine]
inhibition at 100 µM ([6]; 100 µM, −70 mV, hK solution): 17.6 ± 3.5% | inhibition at 100 µM ([7]; 100 µM, −70 mV, hK solution): 12.1 ± 2.4% | brain levels compared with blood levels [8]: 3.2 fold

CCc1nn(CCCN2CCN(c3cccc(Cl)c3)CC2)c(=O)n1CCOc1ccccc1 [nefazodone, nefazodone hydrochloride]
concentrations in cases of overdose [4]: ≤ 11.7 µM | inhibition at 100 µM ([6]; 100 µM, −70 mV, hK solution): 35.9 ± 3.5% | inhibition at 100 µM ([7]; 100 µM, −70 mV, hK solution): 30.3 ± 3.4%

CN[C@H]1CC[C@@H](c2ccc(Cl)c(Cl)c2)c2ccccc21 [sertraline, Sertraline hydrochloride]
% change of the Ba2+-sensitive current components [11]: less than 2% | pKa of secondary amine group [3]: 8.9 | protonated form [5]: approximately 96.9% | current response [1, 12]: 3.0±0.9 nA | current response ([1]; 300 µM, hK solution, −70 mV): 2.0±2.0 nA

COc1ccc(C(CN(C)C)C2(O)CCCCC2)cc1 (stereo not drawn) [venlafaxine, Venlafaxine hydrochloride]
concentrations in cases of overdose [4]: ≤ 302.8 µM | inhibition at 100 µM [6]: 19.4 ± 4.6% | inhibition at 100 µM [7]: 22.8 ± 3.2% | brain levels compared with blood levels [8]: 4.9 fold
